Measured values published in patent publication US20060019967A1 (priority 2004, published 2006).

Target: HCV NS3 protease (Hepatitis C virus genotype 1b, UniProt P26663)
Format: biochemical

HCV NS3 protease, sequence (P26663 1027-1206, other chains not shown): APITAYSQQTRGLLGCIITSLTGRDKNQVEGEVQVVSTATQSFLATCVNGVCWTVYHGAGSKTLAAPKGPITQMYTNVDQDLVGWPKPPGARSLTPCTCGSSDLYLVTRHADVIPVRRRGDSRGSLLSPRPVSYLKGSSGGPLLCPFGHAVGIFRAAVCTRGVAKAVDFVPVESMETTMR

Cc1cc(S(=O)(=O)c2c([N+](=O)[O-])cc(C(F)(F)F)cc2[N+](=O)[O-])c(Cl)cc1Cl [Compound 1]
inhibition of the proteolytic activity of HCV NS3 protease: effectively inhibited

CCOC(=O)/C(C#N)=C/Nc1ccc(S(=O)(=O)c2ccc(N/C=C(\C#N)C(=O)OCC)cc2)cc1 [Compound 14]
inhibition of the proteolytic activity of HCV NS3 protease: effectively inhibited

CCOC(=O)C(=CNc1ccc(S(=O)(=O)c2ccc(NC=C(C(=O)OCC)C(=O)OCC)cc2)cc1)C(=O)OCC [Compound 20]
inhibition of the proteolytic activity of HCV NS3 protease: effectively inhibited

O=C(CC1=NCCS1)c1cccs1 [Compound 21]
inhibition of the proteolytic activity of HCV NS3 protease: effectively inhibited

CN(C)/C=C(/C(=O)c1cccs1)c1nnnn1-c1ccccc1 [Compound 25]
inhibition of the proteolytic activity of HCV NS3 protease: effectively inhibited
